Data taken from PubChem BioAssay (NCI).
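96-well plates; 48 h exposure; 5 concentrations. Endpoints by linear interpolation between flanking doses. Not reached: highest tested concentration assigned. TGI: concentration producing complete growth inhibition.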

What was measured:
Assay in all cases: inhibition of tumour cell growth, NCI panel, 48 h
SK-MEL-5 melanoma = test system: SK-MEL-5 melanoma
SF-295 CNS = test system: SF-295 CNS
ACHN renal = test system: ACHN renal
SW-620 colon = test system: SW-620 colon
UACC-62 melanoma = test system: UACC-62 melanoma
A549 NSCLC = test system: A549 NSCLC
HCC-2998 colon = test system: HCC-2998 colon
HL-60(TB) leukemia = test system: HL-60(TB) leukemia
SK-OV-3 ovarian = test system: SK-OV-3 ovarian
OVCAR-5 ovarian = test system: OVCAR-5 ovarian
SNB-19 CNS = test system: SNB-19 CNS
M19-MEL melanoma = test system: M19-MEL melanoma
DLD-1 colon = test system: DLD-1 colon
LXFL 529 NSCLC = test system: LXFL 529 NSCLC
UO-31 renal = test system: UO-31 renal
SF-539 CNS = test system: SF-539 CNS
U251 CNS = test system: U251 CNS
HOP-18 NSCLC = test system: HOP-18 NSCLC
CCRF-CEM leukemia = test system: CCRF-CEM leukemia
OVCAR-3 ovarian = test system: OVCAR-3 ovarian
COLO 205 colon = test system: COLO 205 colon
NCI-H226 lung = test system: NCI-H226 lung
SNB-75 CNS = test system: SNB-75 CNS
SK-MEL-28 melanoma = test system: SK-MEL-28 melanoma
HT29 colon = test system: HT29 colon
K-562 leukemia = test system: K-562 leukemia
NCI-H522 lung = test system: NCI-H522 lung
NCI-H23 lung = test system: NCI-H23 lung
TK-10 renal = test system: TK-10 renal
IGROV1 ovarian = test system: IGROV1 ovarian
MOLT-4 leukemia = test system: MOLT-4 leukemia
SF-268 CNS = test system: SF-268 CNS
HOP-62 NSCLC = test system: HOP-62 NSCLC
KM12 colon = test system: KM12 colon
OVCAR-8 ovarian = test system: OVCAR-8 ovarian
UACC-257 melanoma = test system: UACC-257 melanoma
HCT-116 colon = test system: HCT-116 colon
HOP-92 NSCLC = test system: HOP-92 NSCLC
SR leukemia = test system: SR leukemia
NCI-H460 lung = test system: NCI-H460 lung
SNB-78 CNS = test system: SNB-78 CNS
A498 renal = test system: A498 renal
OVCAR-4 ovarian = test system: OVCAR-4 ovarian
RXF-631 renal = test system: RXF-631 renal
M14 melanoma = test system: M14 melanoma
RXF 393 renal = test system: RXF 393 renal
786-0 renal = test system: 786-0 renal
SK-MEL-2 melanoma = test system: SK-MEL-2 melanoma
MALME-3M melanoma = test system: MALME-3M melanoma
CAKI-1 renal = test system: CAKI-1 renal
DMS 114 small cell lung = test system: DMS 114 small cell lung
SN12C renal = test system: SN12C renal
DMS 273 small cell lung = test system: DMS 273 small cell lung
KM20L2 colon = test system: KM20L2 colon
EKVX NSCLC = test system: EKVX NSCLC

Question: Which TGI (SK-MEL-5 melanoma) does the source give for `COc1ccc(/C=N/NC(=O)c2sc(=S)n(-c3ccccc3)c2N)cc1` here?
Answer: > 100 µM

Question: And the TGI (SF-295 CNS)?
Answer: > 100 µM

Question: What about the TGI (ACHN renal) of the same molecule?
Answer: > 100 µM

Question: And the TGI (SW-620 colon)?
Answer: > 100 µM

Question: And the TGI (UACC-62 melanoma)?
Answer: > 100 µM

Question: What about the TGI (A549 NSCLC) of the same molecule?
Answer: > 100 µM

Question: And the TGI (HCC-2998 colon)?
Answer: > 100 µM

Question: What about the TGI (HL-60(TB) leukemia) of the same molecule?
Answer: > 100 µM

Question: What about the TGI (SK-OV-3 ovarian) of the same molecule?
Answer: > 100 µM

Question: And the TGI (OVCAR-5 ovarian)?
Answer: > 100 µM

Question: What about the TGI (SNB-19 CNS) of the same molecule?
Answer: > 100 µM

Question: What about the TGI (M19-MEL melanoma) of the same molecule?
Answer: > 100 µM

Question: What about the TGI (DLD-1 colon) of the same molecule?
Answer: > 100 µM

Question: What about the TGI (LXFL 529 NSCLC) of the same molecule?
Answer: > 100 µM

Question: And the TGI (UO-31 renal)?
Answer: > 100 µM

Question: And the TGI (SF-539 CNS)?
Answer: > 100 µM

Question: And the TGI (U251 CNS)?
Answer: > 100 µM

Question: And the TGI (HOP-18 NSCLC)?
Answer: > 100 µM

Question: What about the TGI (CCRF-CEM leukemia) of the same molecule?
Answer: > 100 µM

Question: What about the TGI (OVCAR-3 ovarian) of the same molecule?
Answer: > 100 µM

Question: And the TGI (COLO 205 colon)?
Answer: > 100 µM

Question: What about the TGI (NCI-H226 lung) of the same molecule?
Answer: > 100 µM

Question: What about the TGI (SNB-75 CNS) of the same molecule?
Answer: 8.67 µM

Question: And the TGI (SK-MEL-28 melanoma)?
Answer: > 100 µM

Question: What about the TGI (HT29 colon) of the same molecule?
Answer: > 100 µM

Question: And the TGI (K-562 leukemia)?
Answer: > 100 µM

Question: What about the TGI (NCI-H522 lung) of the same molecule?
Answer: > 100 µM

Question: And the TGI (NCI-H23 lung)?
Answer: > 100 µM

Question: What about the TGI (TK-10 renal) of the same molecule?
Answer: > 100 µM

Question: And the TGI (IGROV1 ovarian)?
Answer: > 100 µM

Question: What about the TGI (MOLT-4 leukemia) of the same molecule?
Answer: > 100 µM

Question: What about the TGI (SF-268 CNS) of the same molecule?
Answer: > 100 µM

Question: And the TGI (HOP-62 NSCLC)?
Answer: > 100 µM

Question: And the TGI (KM12 colon)?
Answer: > 100 µM

Question: And the TGI (OVCAR-8 ovarian)?
Answer: > 100 µM

Question: And the TGI (UACC-257 melanoma)?
Answer: > 100 µM

Question: What about the TGI (HCT-116 colon) of the same molecule?
Answer: > 100 µM

Question: What about the TGI (HOP-92 NSCLC) of the same molecule?
Answer: 79.5 µM

Question: And the TGI (SR leukemia)?
Answer: > 100 µM

Question: And the TGI (NCI-H460 lung)?
Answer: > 100 µM

Question: Which results are given for `COc1ccc2c(c1)[n+]([O-])c(-c1ccc([N+](=O)[O-])cc1)c(N)[n+]2[O-]`?
Answer: TGI (SK-MEL-5 melanoma): > 100 µM; TGI (SF-295 CNS): > 100 µM; TGI (ACHN renal): > 100 µM; TGI (SW-620 colon): > 100 µM; TGI (SNB-78 CNS): > 100 µM; TGI (A549 NSCLC): > 100 µM; TGI (HL-60(TB) leukemia): > 100 µM; TGI (SK-OV-3 ovarian): > 100 µM; TGI (A498 renal): > 100 µM; TGI (OVCAR-5 ovarian): > 100 µM; TGI (SNB-19 CNS): > 100 µM; TGI (OVCAR-4 ovarian): > 100 µM; TGI (DLD-1 colon): > 100 µM; TGI (LXFL 529 NSCLC): > 100 µM; TGI (UO-31 renal): > 100 µM; TGI (RXF-631 renal): > 100 µM; TGI (M14 melanoma): > 100 µM; TGI (RXF 393 renal): > 100 µM; TGI (SF-539 CNS): > 100 µM; TGI (U251 CNS): > 100 µM; TGI (HOP-18 NSCLC): > 100 µM; TGI (CCRF-CEM leukemia): > 100 µM; TGI (OVCAR-3 ovarian): > 100 µM; TGI (COLO 205 colon): > 100 µM; TGI (786-0 renal): > 100 µM; TGI (SK-MEL-2 melanoma): > 100 µM; TGI (MALME-3M melanoma): > 100 µM; TGI (NCI-H226 lung): > 100 µM; TGI (SNB-75 CNS): > 100 µM; TGI (CAKI-1 renal): > 100 µM; TGI (SK-MEL-28 melanoma): > 100 µM; TGI (HT29 colon): > 100 µM; TGI (K-562 leukemia): > 100 µM; TGI (NCI-H522 lung): 32.9 µM; TGI (NCI-H23 lung): > 100 µM; TGI (DMS 114 small cell lung): > 100 µM; TGI (SN12C renal): > 100 µM; TGI (DMS 273 small cell lung): > 100 µM; TGI (IGROV1 ovarian): > 100 µM; TGI (MOLT-4 leukemia): > 100 µM; TGI (KM20L2 colon): > 100 µM; TGI (SF-268 CNS): > 100 µM; TGI (EKVX NSCLC): > 100 µM; TGI (HOP-62 NSCLC): > 100 µM; TGI (KM12 colon): > 100 µM; TGI (OVCAR-8 ovarian): > 100 µM; TGI (UACC-257 melanoma): > 100 µM; TGI (HCT-116 colon): > 100 µM; TGI (HOP-92 NSCLC): > 100 µM; TGI (SR leukemia): > 100 µM; TGI (NCI-H460 lung): > 100 µM
